These results are taken from patent US11065211B2, “Isoxylitones mediated neurogenesis” (priority 2018, dated 2021).

What all share (format): cell-based, rat
In test [1] the test system is hypoxic hippocampal cells. As to the kind of experiment: In-vitro model of hypoxic pre-conditioning. Conditions: 2 h hypoxia then treatment at various concentrations, vs positive control hypoxic cells, FIG. 7. The protocol: In-vitro model of hypoxic cells was established by hypoxia chamber, which contain 5% carbon dioxide, 1% oxygen and 94% nitrogen. Isolated cortical and hippocampal cells from 1-2 days old rat pups were cultured in 75 cm flask in DMEM medium, after culturing cells were plated on 96 well plate at 7000-8000 viable cells per well and incubated in hypoxia chamber for 2 hour at 37° C. for hypoxic conditioning or oxygen deprivation. Following hypoxic shock, medium was replaced with fresh complete medium. Only cells without hypoxia were kept in normal condition as a control group while untreated hypoxic cells were kept as a positive control cells. Following two hours hypoxia the treatment of isoxylitones at various doses was given to hypoxic cells and MTT assay was used to determine the viability of cells in all treated and control cells. The absorbance of the plate was read by spectrophotometer at 570 nm wavelength.

The subject of test [2] is hippocampal cells. Briefly: BrdU proliferation ELISA assay. To be noted: 24 h, FIG. 5. The protocol:
BrdU-Incorporation Assay: For measuring the newly synthesized cells during proliferation of treated and un-treated cultured hippocampal, cortical and co-cultured cells, the BrdU (Calbiochem®, CA, USA) cell proliferation ELISA kit was used. This immunoassay is based on the measurement of BrdU (5-bromo-2′-deoxiurydine) incorporation into DNA during division phase of the proliferating cells. For BrdU proliferation assay, primary cultured cells were grown in 75 cm flasks and when cells were confluent they were trypsinized and re-plated with a cell density of 1×10^5 cells/mL in 96-well tissue culture grade flat bottom ELISA plates, i.e., (10,000 cells/well) in DMEM medium (high glucose). The plates were incubated overnight at 37° C. in 5% CO2. Next day, media was changed and adherent cells were treated with different doses of isoxylitones, i.e., 25, 50, 75, 100, and 150 μg/mL and incubated for 24 hrs in a humidified chamber at 37° C. and 5% CO2.
The following day, the cells were first labeled by the 20 μL of BrdU (1:2000) in fresh medium and kept in a humidified atmosphere at 37° C. for 24 hrs. During 20-24 hrs of labeling period, BrdU is incorporated in place of thymidine into the DNA of the proliferating cells. After removing the labeling medium by tapping off the plate, cells were fixed, and DNA denatured in one step by adding 200 μL of fixative or Denat solution (provided in the kit) in each well following incubation for 30 minutes at room temperature.
The fixation and denaturation of DNA is required to expose the incorporated BrdU for detection by the antibody. The fixative or Denat solution was removed by flicking off and tapping on paper towel. […] The immune complexes were detected by the subsequent substrate reaction and the absorbance was measured on spectrophotometer plate reader at dual wave lengths of 450-595 nm within 30 minutes of adding the stop solution. The data was analyzed using SPSS and graphs were made on Excel.

Test [3] concerns GFAP. Briefly: Immunocytochemical analysis of primary cultured and cocultured cells. To be noted: 24 h. As for the experimental part:
(§1) Immuncytochemical analysis was performed for differentiation studies of primary cultures of cortex, hippocampus, and co-cultures (CoCul) in absence of growth factors and serum free medium.
(§2) The cultured cells of cortex, hippocampus, and co-cultured cells in the presence of serum free medium were plated in chamber slides at the density of 20,000 cells/mL and treated with a proliferative dose of isoxylitones, i.e., 150 μg/ml for 24 hrs at 37° C. and 5% CO2 to let the cells adhere on the bottom surface of the slide. Following incubation, the media was refreshed and the cells were immunolabelled as mentioned in table #2.1.
(§3) For immunostaining, the media was removed; cells were washed gently with 1 mL of 1×PBS. After removing 1×PBS, 4% formaldehyde was added and the slides were incubated for 20 minutes at room temperature to fix the cells. The fixative was aspirated followed by a three times rinse with 1 mL of 1×PBS. After washing, the blocking buffer (BSA having 3% normal goat serum, 0.2% tween-20 and 0.3% of Triton X-100 in 10×PBS) was added and the slides were kept at room temperature for an hour. Then, the cells were washed gently three times with 1×PBS on an orbital shaker and 300 μL of primary antibodies (dilution mentioned in table #2.1) were added to each slide and incubated overnight at 4° C. Following incubation, the cells were washed gently in PBS three times (5 minutes each wash) on an orbital shaker. Next secondary antibody (Table #2.1) in 3% normal serum or BSA was added to their respective chamber and incubated for 1 hour at room temperature in dark. Following incubation, the slides were washed with 1×PBS.
(§4) Diluted Dapi (1:1000) was added into each slide to counter stain the nucleus. After rinsing twice with distilled water, images were captured using the Nikon 90i with fluorescence microscopes (Nikon. Tokyo, Japan) equipped with Nuance Software version 3.1 (Caliper Life Sciences. Hopkinton, Mass.). The magnification used was 20×.
(§5) For quantification studies, ImageJ software (National Institutes of Health, USA) was used to digitalized the images. This software provides multiple imaging system data comparisons taking densitometry in consideration. Briefly, 5 different regions were randomly selected and the fluorescence intensity was quantified in cells and the background intensity of each image was subtracted from it, the residual particles were measured to represent expression of relevant protein. Cells or fields were counted and percentage intensity of protein expression was measured and means percentage intensity was calculated. Data from three individual experiments was obtained and expressed as means±SEM.

Test [4] relates to Neuro D1. The description is as above. As for the experimental part: as §1, §2, §3, §4, §5
Test [5] has as its system nestin. The description is as above. To be noted: 24 h. As for the experimental part:
as §1, §2, §3, §4, §5

Test [6] concerns neurogenin. Described as above. The protocol:
as §1, §2, §3, §4, §5

In the case of `CC(=O)C=C1C=C(C)CC(C)(C)C1` (mixture of isomers) [isoxylitones], in test [1], the “recovery of hypoxic cells (phase-contrast morphology)” value was “Recovery of hypoxic cells clearly observed”. Further, the BrdU positive cells entry in test [2] (100 μg/ml) and in test [2] (150 μg/ml) was “significantly increased BrdU positive cells” each time. Also, in test [3] ((A) cortical and (B) CoCul-CTX cells, vs vehicle control, FIG. 10), the “GFAP expression (immunofluorescence)” value is listed as “prominent increase of GFAP expression”. In test [3] ((A) hippocampal and (B) CoCul-HP cells, 150 μg/ml, vs control, FIG. 11), the “GFAP immunochemistry, intensity of images” value is recorded as “No significant difference in intensity”. In addition, the “Neuro D1 protein expression” value in test [4] ((A) cortical and (B) CoCul-CTX cells, 150 μg/ml, 24 h, vs control, FIG. 16) is “significant upregulation”. The “Neuro D1 immunofluorescence intensity” value in test [4] ((A) hippocampal and (B) CoCul-HP cells, FIG. 17) is “significant up-regulation in immunofluorescence of NeuroD1 intensity”. For the same compound, the “nestin expression (immunofluorescence)” value is given as “no significant difference” in test [5] ((A) CTX and (B) CoCul-CTX cells, vs control, FIG. 9); “up-regulation of nestin protein expression” in test [5] ((A) hippocampal and (B) CoCul-HP cells, 150 μg/ml, vs untreated control, FIG. 8). The “neurogenin expression (immunostaining)” value in test [6] ((A) cortical and (B) CoCul-CTX cells, FIG. 18) is given as “prominent neurogenin expression”; in test [6] ((A) hippocampal and (B) CoCul-HP cells, 24 h, vs control P<0.001, FIG. 19), “elevated neurogenin expression”.
